IC50, Activity and inhibition data for 14 compounds are collected here from ChEMBL document CHEMBL4130459, “3,5-Dimethylorsellinic Acid Derived Meroterpenoids from Penicillium chrysogenum MT-12, an Endophytic Fungus Isolated from Huperzia serrata” (J Nat Prod, 2017).

In data set [1] the test system is RAW264.7. Put plainly: Inhibition of LPS-induced nitric oxide production in mouse RAW264.7 cells after 24 hrs by Griess assay. In kind it is functional, cell-based. To be noted: RAW264.7, 24 h. A general note: Nitrite, measured by Griess reagent, commonly stands in for NO production.
In data set [2] the test system is RAW264.7. Put plainly: Cytotoxicity against mouse RAW264.7 cells by MTT assay. It counts as cell-based.
In data set [3] the test system is RAW264.7. Description: Inhibition of LPS-induced nitric oxide production in mouse RAW264.7 cells at 80 uM after 24 hrs by Griess assay relative to control. In kind it is functional. To be noted: RAW264.7, 24 h.

Bounds are passed on as bounds.

Broadly, the IC50 is the concentration that gives 50% inhibition. For the compound `COC(=O)[C@]12C(=O)[C@@H](C)O[C@@H]3OC(=O)[C@](C)(C[C@@H]4[C@]1(C)CC=C1C(=CC(=O)OC1(C)C)[C@@]4(C)O)[C@@H]32`, 78.2 µM corresponded to half-maximal inhibition in the data set with RAW264.7 [1] (IC50). In the data set on RAW264.7 [2], the Activity entry was “Non-Toxic”.
Broadly, the inhibition is how much of the control response was suppressed. Regarding `C[C@H]1OC(=O)[C@@]23[C@@H]4[C@H]5OC(=O)[C@]4(C)C[C@@H]4[C@]2(C)[C@H](C=C2C(=CC(=O)OC2(C)C)[C@@]42CO2)O[C@@]13O5`, the inhibition at 80 µM in the data set on RAW264.7 [3] was under 50%.
The same measure, in the same setting: under `COC(=O)[C@]1(C)O[C@H]2OC(=O)[C@@H]3[C@H]2[C@@](C)(C[C@H]2C(C)=C4CC(=O)OC(C)(C)C4=CC[C@]32C)C1=O` stands under 50%.
In the case of `C[C@H]1O[C@@H]2OC(=O)[C@]3(C)C[C@@H]4[C@@]5(C)C(=C1O[C@H]5C=C1C(=CC(=O)OC1(C)C)[C@@]41CO1)[C@]23O`, the half-inhibitory concentration (IC50) in the data set with RAW264.7 [1] was determined as 24 µM. The Activity result in the data set with RAW264.7 [2] is recorded as “Non-Toxic”.
Turning to `COC(=O)[C@]12C[C@@](C)(O)C(=O)[C@](C)(C[C@H]3C(C)=C4CC(=O)OC(C)(C)C4=CC[C@@]31C)[C@]21CO1`, the inhibition at 80 µM with RAW264.7 [3] was under 50%.
On the same count and under the same terms, under `C[C@H]1O[C@@H]2OC(=O)[C@]3(C)C[C@@H]4[C@@]5(C)C(=C1O[C@H]5C=C1C(=CC(=O)OC1(C)C)[C@@]41CO1)[C@H]23` stands under 50%.
Regarding `COC(=O)[C@]12C(=O)[C@@H](C)O[C@@H]3OC(=O)[C@](C)(C[C@H]4[C@]5(CO5)C5=CC(=O)OC(C)(C)[C@]56O[C@@H]6C[C@@]41C)[C@@H]32`, the inhibition at 80 µM with RAW264.7 [3] was under 50%.
The same measure, in the same setting: next, `COC(=O)[C@]12C(=O)[C@@H](C)O[C@@H]3OC(=O)[C@](C)(C[C@H]4C(C)=C5CC(=O)OC(C)(C)C5=CC[C@@]41C)[C@@H]32`: under 50%.
For `C[C@@H]1O[C@H]2OC(=O)[C@@]3(C)C[C@H]4[C@@](C)(C(=O)C=C5C(=CC(=O)OC5(C)C)[C@]45CO5)[C@@H](C1=O)[C@@]23O`, in the data set on RAW264.7 [1], the 50% inhibitory concentration (IC50) was 12.7 µM. Moreover, the Activity entry in the data set with RAW264.7 [2] is listed as “Non-Toxic”.
The compound `COC(=O)[C@]12C(=O)[C@H](C)O[C@@H]3OC(=O)[C@](C)(C[C@H]4[C@]5(CO5)C5=CC(=O)OC(C)(C)C5=CC[C@@]41C)[C@@H]32` [BERKELEYACETAL B] came in with an inhibition at 80 µM in the data set on RAW264.7 [3] of under 50%.
As for `C[C@@H]1O[C@@H]2OC(=O)[C@]3(C)C[C@@H]4[C@](C)(C(=O)C=C5C(=CC(=O)OC5(C)C)[C@@]45CO5)[C@H](C1=O)[C@H]23` [BERKELEYACETAL C], in the data set with RAW264.7 [1], the midpoint of inhibition, the IC50, lay at 4.3 µM. The Activity entry in the data set on RAW264.7 [2] is listed as “Non-Toxic”.
In turn, `C=C1[C@@]2(C)C[C@H]3C(C)=C4CC(=O)OC(C)(C)C4=CC[C@]3(C)[C@]1(C(=O)OC)C(=O)[C@@](C)(O)C2=O` [BERKELEYDIONE] returned an inhibition at 80 µM in the data set with RAW264.7 [3] of under 50%.
Consider `C=C1[C@@]2(C)C[C@@H]3[C@](C)(CC=C4C(C)(C)OC(=O)CC[C@]43C)[C@]1(C(=O)OC)C(=O)[C@@](C)(O)C2=O` [BERKELEYONE B], for which the inhibition at 80 µM in the data set on RAW264.7 [3] was under 50%.
`COc1ccc2c(c1)c(CC(=O)O)c(C)n2C(=O)c1ccc(Cl)cc1` [INDOMETHACIN] came in with an IC50 in the data set on RAW264.7 [1] of 33.6 µM.
